Values of other authors as cited in US20110033506A1, “COMBINATION DOSAGE FORM OF LOW-DOSE MODAFINIL AND LOW-DOSE SILDENAFIL” (priority 2008, published 2011).

Test system: hamsters
Details: Agostino et al, PNAS 2007

CCCc1nn(C)c2c(=O)[nH]c(-c3cc(S(=O)(=O)N4CCN(C)CC4)ccc3OCC)nc12.O=C(O)CC(O)(CC(=O)O)C(=O)O [Sildenafil, 1-[[3-(6,7-dihydro-1-methyl-7-oxo-3-propyl-1H-pyrazolo[4,3-d]pyrimidin-5-yl)-4-ethoxyphenyl]sulfonyl]-4-methylpiperazine]
re-establishing disrupted circadian rhythms (jet lag): effective in re-establishing disrupted circadian rhythms
